Assay results from patent US10798941B2, “Microbiocidal oxadiazole derivatives” (SYNGENTA PARTICIPATIONS AG, priority 2016, dated 2020).

Experiments:
[1] = system: Puccinia recondita f. Sp. Tritici; assay: Puccinia recondita f. sp. tritici / wheat / leaf disc curative (brown rust); type: in vivo; conditions: foliar, 144 h, 200 ppm in the applied formulation, wheat leaf segments cv. Kanzler, applied 1 day after inoculation, assessed 6 to 8 days after application, vs untreated, read-out: disease control
Outline: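 Spray application came one day after spore inoculation of Kanzler wheat leaf segments kept on agar. Conditions: 19° C, 75% relative humidity, dark before treatment and 12 h light/12 h dark after. Efficacy = % disease control compared with untreated, 6–8 days post-application.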

[2] = system: Phakopsora pachyrhizi; assay: Phakopsora pachyrhizi / soybean / leaf disc preventative (Asian soybean rust); type: in vivo; conditions: foliar, 288 h, 200 ppm in the applied formulation, soybean leaf disks, inoculated one day after application, assessed 12 to 14 days after application, vs untreated, read-out: disease control
Outline: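 Read-out is percent disease control relative to untreated check discs, assessed once untreated discs show adequate disease, 12 to 14 days after application. Compounds, tested at 200 ppm in the applied formulation, are sprayed onto soybean leaf discs one day before inoculation with a spore suspension.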

[3] = system: Glomerella Lagenarium (Colletotrichum Lagenarium); assay: Glomerella lagenarium (Colletotrichum lagenarium) liquid culture / cucumber / preventative (anthracnose); type: cell-based; conditions: Colletotrichum orbiculare; 20 ppm in the applied formulation; liquid culture in PDB, 24° C., inhibition of growth measured photometrically 3 to 4 days after application, vs untreated; read-out: disease control
Outline: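 Conidia from cryogenic storage were mixed into potato dextrose broth. This was added to compound diluted from DMSO into 0.025% Tween20, tested at 20 ppm. Plates were incubated in the dark at 24 °C and 96% relative humidity, and growth was read photometrically after 2–7 days as % activity versus untreated check.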

[4] = system: Puccinia recondita f. Sp. Tritici; assay: Puccinia recondita f. sp. tritici / wheat / leaf disc preventative (brown rust); type: in vivo; conditions: foliar, 168 h, 200 ppm in the applied formulation, wheat leaf segments cv. Kanzler, preventative, inoculated 1 day after application, assessed 7 to 9 days after application, vs untreated, read-out: disease control
Outline: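 Wheat cv. Kanzler leaf segments on agar were sprayed with formulated compound in water, then inoculated with spores 1 day later. Incubated at 19° C, 75% rh, 12 h light/12 h dark; percent disease control versus untreated scored 7 to 9 days after application.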

FC(F)(F)c1nc(-c2ccc(Cn3cnc(Br)c3)nc2)no1 [Compound 1.136, 3-[6-[(4-bromoimidazol-1-yl)methyl]-3-pyridyl]-5-(trifluoromethyl)-1,2,4-oxadiazole]
≥ 80%: pest or weed control at 200 ppm [1] | pest or weed control at 200 ppm [2] | inhibition of growth at 20 ppm [3] | pest or weed control at 200 ppm [4]

O=C(O)c1cnn(Cc2ccc(-c3noc(C(F)(F)F)n3)cc2)c1 [Compound 1.147, 1-[[4-[5-(trifluoromethyl)-1,2,4-oxadiazol-3-yl]phenyl]methyl]pyrazole-4-carboxylic acid]
≥ 80%: pest or weed control at 200 ppm [1] | pest or weed control at 200 ppm [2] | inhibition of growth at 20 ppm [3] | pest or weed control at 200 ppm [4]

O=Cc1cn(Cc2ccc(-c3noc(C(F)(F)F)n3)cc2)cn1 [Compound 1.151, 1-[[4-[5-(trifluoromethyl)-1,2,4-oxadiazol-3-yl]phenyl]methyl]imidazole-4-carbaldehyde]
≥ 80%: pest or weed control at 200 ppm [1] | pest or weed control at 200 ppm [2] | inhibition of growth at 20 ppm [3] | pest or weed control at 200 ppm [4]

N#Cc1cn(Cc2ccc(-c3noc(C(F)(F)F)n3)cc2)cn1 [Compound 1.154, 1-[[4-[5-(trifluoromethyl)-1,2,4-oxadiazol-3-yl]phenyl]methyl]imidazole-4-carbonitrile]
≥ 80%: pest or weed control at 200 ppm [1] | pest or weed control at 200 ppm [2] | inhibition of growth at 20 ppm [3] | pest or weed control at 200 ppm [4]

FC(F)Sc1nc(-c2ccc(Cl)cc2)cn1Cc1ccc(-c2noc(C(F)(F)F)n2)cc1 [Compound 1.174, 3-[4-[[4-(4-chlorophenyl)-2-(difluoromethyl-sulfanyl)imidazol-1-yl]methyl]phenyl]-5-(trifluoromethyl)-1,2,4-oxadiazole]
≥ 80%: pest or weed control at 200 ppm [1] | pest or weed control at 200 ppm [2] | inhibition of growth at 20 ppm [3] | pest or weed control at 200 ppm [4]

COC(=O)c1cccc2nn(Cc3ccc(-c4noc(C(F)(F)F)n4)cc3)cc12 [Compound 1.192, methyl 2-[[4-[5-(trifluoromethyl)-1,2,4-oxadiazol-3-yl]phenyl]methyl]indazole-4-carboxylate]
≥ 80%: pest or weed control at 200 ppm [1] | pest or weed control at 200 ppm [2] | inhibition of growth at 20 ppm [3] | pest or weed control at 200 ppm [4]

Nc1nc(C(F)(F)F)nn1Cc1ccc(-c2noc(C(F)(F)F)n2)cc1 [Compound 1.200, 5-(trifluoromethyl)-2-[[4-[5-(trifluoromethyl)-1,2,4-oxadiazol-3-yl]phenyl]methyl]-1,2,4-triazol-3-amine]
≥ 80%: pest or weed control at 200 ppm [1] | pest or weed control at 200 ppm [2] | inhibition of growth at 20 ppm [3] | pest or weed control at 200 ppm [4]

CCCSc1ncn(Cc2ccc(-c3noc(C(F)(F)F)n3)cc2)n1 [Compound 1.206, 3-[4-[(3-propylsulfanyl-1,2,4-triazol-1-yl)methyl]phenyl]-5-(trifluoromethyl)-1,2,4-oxadiazole]
≥ 80%: pest or weed control at 200 ppm [1] | pest or weed control at 200 ppm [2] | inhibition of growth at 20 ppm [3] | pest or weed control at 200 ppm [4]

CCCSc1ncnn1Cc1ccc(-c2noc(C(F)(F)F)n2)cc1 [Compound 1.207, 3-[4-[(5-propylsulfanyl-1,2,4-triazol-1-yl)methyl]phenyl]-5-(trifluoromethyl)-1,2,4-oxadiazole]
≥ 80%: pest or weed control at 200 ppm [1] | pest or weed control at 200 ppm [2] | inhibition of growth at 20 ppm [3] | pest or weed control at 200 ppm [4]

CCSc1ncn(Cc2ccc(-c3noc(C(F)(F)F)n3)cc2)n1 [Compound 1.208, 3-[4-[(3-ethylsulfanyl-1,2,4-triazol-1-yl)methyl]phenyl]-5-(trifluoromethyl)-1,2,4-oxadiazole]
≥ 80%: pest or weed control at 200 ppm [1] | pest or weed control at 200 ppm [2] | inhibition of growth at 20 ppm [3] | pest or weed control at 200 ppm [4]

FC(F)(F)c1nc(-c2ccc(Cn3cnnc3SCc3ccccc3)cc2)no1 [Compound 1.213, 3-[4-[(3-benzylsulfanyl-1,2,4-triazol-4-yl)methyl]phenyl]-5-(trifluoromethyl)-1,2,4-oxadiazole]
≥ 80%: pest or weed control at 200 ppm [1] | pest or weed control at 200 ppm [2] | inhibition of growth at 20 ppm [3] | pest or weed control at 200 ppm [4]

COc1nc(N)n(Cc2ccc(-c3noc(C(F)(F)F)n3)cc2)n1 [Compound 1.214, 5-methoxy-2-[[4-[5-(trifluoromethyl)-1,2,4-oxadiazol-3-yl]phenyl]methyl]-1,2,4-triazol-3-amine]
≥ 80%: pest or weed control at 200 ppm [1] | pest or weed control at 200 ppm [2] | inhibition of growth at 20 ppm [3] | pest or weed control at 200 ppm [4]

COc1nc(N)nn1Cc1ccc(-c2noc(C(F)(F)F)n2)cc1 [Compound 1.215, 5-methoxy-1-[[4-[5-(trifluoromethyl)-1,2,4-oxadiazol-3-yl]phenyl]methyl]-1,2,4-triazol-3-amine]
≥ 80%: pest or weed control at 200 ppm [1] | pest or weed control at 200 ppm [2] | inhibition of growth at 20 ppm [3] | pest or weed control at 200 ppm [4]

CCOC(=O)c1cccnc1-c1ccn(Cc2ccc(-c3noc(C(F)(F)F)n3)cc2)n1 [Compound 1.219, ethyl 2-[1-[[4-[5-(trifluoromethyl)-1,2,4-oxadiazol-3-yl]phenyl]methyl]pyrazol-3-yl]pyridine-3-carboxylate]
≥ 80%: pest or weed control at 200 ppm [1] | pest or weed control at 200 ppm [2] | inhibition of growth at 20 ppm [3] | pest or weed control at 200 ppm [4]

Nc1nc(C(F)F)nn1Cc1ccc(-c2noc(C(F)(F)F)n2)cc1 [Compound 1.222, 5-(difluoromethyl)-2-[[4-[5-(trifluoromethyl)-1,2,4-oxadiazol-3-yl]phenyl]methyl]-1,2,4-triazol-3-amine]
≥ 80%: pest or weed control at 200 ppm [1] | pest or weed control at 200 ppm [2] | inhibition of growth at 20 ppm [3] | pest or weed control at 200 ppm [4]

FC(F)(F)c1nc(-c2ccc(Cn3cnnc3)cc2)no1 [Compound 1.226, 3-[4-(1,2,4-triazol-4-ylmethyl)phenyl]-5-(trifluoromethyl)-1,2,4-oxadiazole]
≥ 80%: pest or weed control at 200 ppm [1] | pest or weed control at 200 ppm [2] | inhibition of growth at 20 ppm [3] | pest or weed control at 200 ppm [4]

FC(F)(F)c1nc(-c2ccc(Cn3cnc(-c4ccc(Cl)cc4)c3)cc2)no1 [Compound 1.229, 3-[4-[[4-(4-chlorophenyl)imidazol-1-yl]methyl]phenyl]-5-(trifluoromethyl)-1,2,4-oxadiazole]
≥ 80%: pest or weed control at 200 ppm [1] | pest or weed control at 200 ppm [2] | inhibition of growth at 20 ppm [3] | pest or weed control at 200 ppm [4]

COc1nc(Br)n(Cc2ccc(-c3noc(C(F)(F)F)n3)cc2)n1 [Compound 1.232, 3-[4-[(5-bromo-3-methoxy-1,2,4-triazol-1-yl)methyl]phenyl]-5-(trifluoromethyl)-1,2,4-oxadiazole]
≥ 80%: pest or weed control at 200 ppm [1] | pest or weed control at 200 ppm [2] | inhibition of growth at 20 ppm [3] | pest or weed control at 200 ppm [4]

COc1nc(Br)nn1Cc1ccc(-c2noc(C(F)(F)F)n2)cc1 [Compound 1.233, 3-[4-[(3-bromo-5-methoxy-1,2,4-triazol-1-yl)methyl]phenyl]-5-(trifluoromethyl)-1,2,4-oxadiazole]
≥ 80%: pest or weed control at 200 ppm [1] | pest or weed control at 200 ppm [2] | inhibition of growth at 20 ppm [3] | pest or weed control at 200 ppm [4]

COC(=O)c1cnn(Cc2ccc(-c3noc(C(F)(F)F)n3)cc2)c1C1CC1 [Compound 1.236, methyl 5-cyclopropyl-1-[[4-[5-(trifluoromethyl)-1,2,4-oxadiazol-3-yl]phenyl]methyl]pyrazole-4-carboxylate]
≥ 80%: pest or weed control at 200 ppm [1] | pest or weed control at 200 ppm [2] | inhibition of growth at 20 ppm [3] | pest or weed control at 200 ppm [4]
